{"source": "patent US20140010762A1", "about": "“IMAGING AGENTS” (Chroma Therapeutics Ltd, priority 2010, published 2014)", "key": {"[1]": {"system": "THP-1 cells", "experiment": "Measurement of fluorescence v time by flow cytometry, monocytic cell line", "type": "cell-based", "details": "THP-1 cells (significant quantities of hCE-1); FIG. 6; 3000 nM; median fluorescence intensity v time", "protocol": "(§1) The degree of fluorescence of monocytic and non-monocytic cell lines following treatment with Example 1 was assessed using flow cytometry. This assessment was performed using a BD Biosciences BD FACSCanto™ Flow Cytometry System.\n(§2) The cell lines are treated with a 3000 nM solution of Example 1. The resultant mixture is sampled at times 0, 1 hr, 2 hr, 4 hr and 6 hr. At each time point a sample of the cells is harvested by centrifugation, washed and allowed to rest for 30 minutes then washed again and re-suspended in a small volume for analysis by flow cytometry (FACSCanto™ A BD Biosciences) at an excitation of 488 nm blue laser line emission measured in an FITC detector using a 502 nm long pass dichroic and a 530±15 band pass filter. Data is expressed as median fluorescence intensity (MFI) for the cell population in the FITC channel, and plotted against time in a line graph. The unstained cells are set to an MFI of 100."}, "[2]": {"system": "KG-1 cells", "experiment": "Measurement of fluorescence v time by flow cytometry, non-monocytic cell line", "type": "cell-based", "details": "KG-1 cells (insignificant quantities of hCE-1); FIG. 5; 3000 nM; median fluorescence intensity v time", "protocol": "as §1, §2"}}}
{"smiles": "O=C(OC1CCCC1)[C@@H](NCc1ccc(OCCCNc2ccc([N+](=O)[O-])c3nonc23)cc1)c1ccccc1", "note": "[Example 1, Cyclopentyl (2S)-[(4-{3-[(7-nitro-2,1,3-benzoxadiazol-4-yl)amino]propoxy}benzyl)amino](phenyl)ethanoate]", "values": [{"measurement": "increase in fluorescence following treatment", "setting": "[1]", "result": "high increase in fluorescence"}, {"measurement": "increase in fluorescence following treatment", "setting": "[2]", "result": "low increase in fluorescence"}]}
